The values that follow are results of earlier work, collected in US20040136904A1, “Dry powder compositions comprising labelled particles for inhalation” (priority 2001, published 2004).

For this data set the following is noted: in vivo.

As for `[Na+].[O]=[Tc](=[O])(=[O])[O-]` [sodium pertechnetate], the “time in which 50% is removed from the surface of the lung” value was around 10 min.
